According to article PMC9420858, “Synthesis, bioactivity, and molecular docking of novel arylpiperazine derivatives as potential AR antagonists” (Frontiers in Chemistry, 2022):
Read-outs that look alike come from different tables or passages of the source.

Experiments:
[1] = biological target: T1, AR-LBD (GST) (Rattus norvegicus, UniProt P15207); assay: AR binding, fluorescence polarization (PolarScreen AR Competitor Assay)
T1 sequence (P15207 651-882 limits assumed): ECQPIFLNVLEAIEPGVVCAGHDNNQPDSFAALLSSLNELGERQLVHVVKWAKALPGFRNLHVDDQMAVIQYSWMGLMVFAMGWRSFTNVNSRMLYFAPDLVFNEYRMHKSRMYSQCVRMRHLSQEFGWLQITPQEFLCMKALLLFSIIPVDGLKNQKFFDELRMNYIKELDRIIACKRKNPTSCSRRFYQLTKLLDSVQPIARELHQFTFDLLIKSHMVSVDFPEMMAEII
Experimental: Briefly, titrations are performed between the tested compounds and the preformed Fluormone™AL Green and the AR-LBD (GST) complex. The tested mixture was allowed to equilibrate at room temperature in 384-well plates for 4 h. […] Data of the ligand binding assays were analyzed using Prism software (GraphPad Software, Inc.).

[2] = tested on: RWPE-1 cells; assay: Cytotoxicity, CCK-8 assay, RWPE-1 normal prostate epithelial cells; type: cell-based; details: RWPE-1 normal non-cancer human prostate epithelial cell line, 24 h, mean ± SD of three experiments
Experimental: (§1) The antiproliferative activity of compounds 5–26 was assessed using the CCK-8 assay ([Chen et al., 2016]; [Chen et al., 2017]; [Chen et al., 2018]; [Han et al., 2020]; [Guo et al., 2021]; [Hu et al., 2022]; [Zhou et al., 2022]). The 96-well plates (1×10^5 cells/mL) were seeded with cells in a medium, the plates were cultured at 37 °C for 24 h, then different concentrations of tested drugs were added, and the plates were cultured for 24 h. After 24 h, 10 μL of CCK-8 solution (5 mg/ml) was added to the wells, and the cells were cultured for 1 h at 37°C. Cell growth inhibition was performed by measuring the absorbance at 450 nm using a microplate reader, and the percentage of cell growth inhibition was then calculated for each tested drug.
(§2) Antiproliferative activity of the novel arylpiperazine derivatives was firstly evaluated against LNCaP cells using the CCK-8 assay. […] Naftopidil and finasteride ([Banday et al., 2014]) were used as control compounds. RWPE-1 cells were used to compare their toxicity. To clarify whether the antiproliferative activity was related to any interference with AR function, the AR antagonist effect was evaluated using the luciferase reporter gene assay. […] The AR luciferase assays were conducted under the co-treatment of 1 nM AR agonist R1881, and the antagonistic activity was measured by inhibiting the R1881-induced luciferase expression.

[3] = tested on: PC-3 cells; assay: Antiproliferative activity, CCK-8 assay, PC-3 cells; type: cell-based; details: PC-3 human prostate cancer cell line, 24 h, mean ± SD of three experiments
Experimental: as §1, §2

[4] = tested on: LNCaP cells; assay: Antiproliferative activity, CCK-8 assay, LNCaP cells; type: cell-based; details: 24 h, LNCaP human prostate cancer cell line, mean ± SD of three experiments
Experimental: as §1, §2

[5] = AR binding affinity IC50, fluorescence polarization

melting point	IC50 [1]	IC50 [1, 5]	IC50 [3]	IC50 ([4]; Homo sapiens, LNCaP)	IC50 [4]	Structure (SMILES)	IC50 [2]
82.2 to 83.5 °C	1460 ± 240 nM	< 2000 nM	> 50 µM	–	–	c1ccc(N2CCN(CCc3ccc(COc4ccc5c(c4)CCC5)cc3)CC2)cc1 [Compound 5, 1-(4-((2,3-dihydro-1H-inden-5-yloxy)methyl)phenethyl)-4-phenylpiperazine]	> 50 µM
71.1 to 73.3 °C	–	–	11.3 ± 0.15 µM	23.45 ± 0.12 µM	–	c1ccc(CN2CCN(CCc3ccc(COc4ccc5c(c4)CCC5)cc3)CC2)cc1 [Compound 6, 1-(4-((2,3-dihydro-1H-inden-5-yloxy)methyl)phenethyl)-4-benzylpiperazine]	11.6 ± 0.21 µM
90.1 to 91.8 °C	–	–	> 50 µM	15.29 ± 0.13 µM	–	c1ccc(N2CCN(CCc3ccc(COc4ccc5c(c4)CCC5)cc3)CC2)nc1 [Compound 7, 1-(4-((2,3-dihydro-1H-inden-5-yloxy)methyl)phenethyl)-4-(pyridin-2-yl)piperazine]	7.68 ± 0.15 µM
62.3 to 63.1 °C	2350 ± 90 nM	< 3000 nM	> 50 µM	< 10 µM	7.37 ± 0.15 µM	Cc1ccccc1N1CCN(CCc2ccc(COc3ccc4c(c3)CCC4)cc2)CC1 [Compound 8, 1-(4-((2,3-dihydro-1H-inden-5-yloxy)methyl)phenethyl)-4-o-tolylpiperazine]	> 50 µM
61.2 to 62.7 °C	–	–	> 50 µM	42.68 ± 0.14 µM	–	Cc1cccc(N2CCN(CCc3ccc(COc4ccc5c(c4)CCC5)cc3)CC2)c1 [Compound 9, 1-(4-((2,3-dihydro-1H-inden-5-yloxy)methyl)phenethyl)-4-m-tolylpiperazine]	11 ± 0.16 µM
105.1 to 106.3 °C	–	–	17.2 ± 0.21 µM	20.9 ± 0.22 µM	–	Cc1ccc(N2CCN(CCc3ccc(COc4ccc5c(c4)CCC5)cc3)CC2)cc1 [Compound 10, 1-(4-((2,3-dihydro-1H-inden-5-yloxy)methyl)phenethyl)-4-p-tolylpiperazine]	9.24 ± 0.23 µM
70.4 to 71.5 °C	–	–	4.31 ± 0.13 µM	> 50 µM	–	Cc1ccc(C)c(N2CCN(CCc3ccc(COc4ccc5c(c4)CCC5)cc3)CC2)c1 [Compound 11, 1-(4-((2,3-dihydro-1H-inden-5-yloxy)methyl)phenethyl)-4-(2,5-dimethylphenyl)piperazine]	> 50 µM
77.3 to 78.5 °C	2530 ± 150 nM	< 3000 nM	25.62 ± 0.17 µM	< 10 µM	8.12 ± 0.11 µM	COc1ccccc1N1CCN(CCc2ccc(COc3ccc4c(c3)CCC4)cc2)CC1 [Compound 12, 1-(4-((2,3-dihydro-1H-inden-5-yloxy)methyl)phenethyl)-4-(2-methoxyphenyl)piperazine]	> 50 µM
65.2 to 66.1 °C	–	–	> 50 µM	> 50 µM	–	CCOc1ccccc1N1CCN(CCc2ccc(COc3ccc4c(c3)CCC4)cc2)CC1 [Compound 13, 1-(4-((2,3-dihydro-1H-inden-5-yloxy)methyl)phenethyl)-4-(2-ethoxyphenyl)piperazine]	> 50 µM
74.2 to 75.4 °C	2620 ± 250 nM	–	0.87 ± 0.12 µM	–	–	COc1cccc(N2CCN(CCc3ccc(COc4ccc5c(c4)CCC5)cc3)CC2)c1 [Compound 14, 1-(4-((2,3-dihydro-1H-inden-5-yloxy)methyl)phenethyl)-4-(3-methoxyphenyl)piperazine]	> 50 µM
78.1 to 79.3 °C	2850 ± 650 nM	–	8.94 ± 0.21 µM	< 10 µM	9.72 ± 0.13 µM	COc1ccc(N2CCN(CCc3ccc(COc4ccc5c(c4)CCC5)cc3)CC2)cc1 [Compound 15, 1-(4-((2,3-dihydro-1H-inden-5-yloxy)methyl)phenethyl)-4-(4-methoxyphenyl)piperazine]	21.7 ± 0.23 µM
64.2 to 65.3 °C	–	–	> 50 µM	18.56 ± 0.17 µM	–	Fc1ccccc1N1CCN(CCc2ccc(COc3ccc4c(c3)CCC4)cc2)CC1 [Compound 16, 1-(4-((2,3-dihydro-1H-inden-5-yloxy)methyl)phenethyl)-4-(2-fluorophenyl)piperazine]	> 50 µM
79.8 to 80.5 °C	–	–	1.45 ± 0.17 µM	17.92 ± 0.13 µM	–	Fc1ccc(N2CCN(CCc3ccc(COc4ccc5c(c4)CCC5)cc3)CC2)cc1 [Compound 17, 1-(4-((2,3-dihydro-1H-inden-5-yloxy)methyl)phenethyl)-4-(4-fluorophenyl)piperazine]	> 50 µM
86.1 to 86.5 °C	–	–	1.92 ± 0.24 µM	10.7 ± 0.14 µM	–	Fc1ccc(N2CCN(CCc3ccc(COc4ccc5c(c4)CCC5)cc3)CC2)c(F)c1 [Compound 18, 1-(4-((2,3-dihydro-1H-inden-5-yloxy)methyl)phenethyl)-4-(2,4-difluorophenyl)piperazine]	> 50 µM
91.4 to 92.1 °C	2060 ± 210 nM	< 3000 nM	> 50 µM	< 10 µM	6.87 ± 0.06 µM	Clc1ccccc1N1CCN(CCc2ccc(COc3ccc4c(c3)CCC4)cc2)CC1 [Compound 19, 1-(4-((2,3-dihydro-1H-inden-5-yloxy)methyl)phenethyl)-4-(2-chlorophenyl)piperazine]	32.67 ± 0.14 µM
83.2 to 84.3 °C	–	–	1.56 ± 0.14 µM	16.98 ± 0.15 µM	–	Clc1cccc(N2CCN(CCc3ccc(COc4ccc5c(c4)CCC5)cc3)CC2)c1 [Compound 20, 1-(4-((2,3-dihydro-1H-inden-5-yloxy)methyl)phenethyl)-4-(3-chlorophenyl)piperazine]	> 50 µM
117.2 to 118.6 °C	650 ± 80 nM	< 2000 nM	> 50 µM	–	–	Clc1ccc(N2CCN(CCc3ccc(COc4ccc5c(c4)CCC5)cc3)CC2)cc1 [Compound 21, 1-(4-((2,3-dihydro-1H-inden-5-yloxy)methyl)phenethyl)-4-(4-chlorophenyl)piperazine]	> 50 µM
77.2 to 78.4 °C	2470 ± 110 nM	< 3000 nM	23.48 ± 0.23 µM	< 10 µM	6.32 ± 0.14 µM	Clc1cccc(N2CCN(CCc3ccc(COc4ccc5c(c4)CCC5)cc3)CC2)c1Cl [Compound 22, 1-(4-((2,3-dihydro-1H-inden-5-yloxy)methyl)phenethyl)-4-(2,3-dichlorophenyl)piperazine]	> 50 µM
87.4 to 88.3 °C	–	–	0.95 ± 0.14 µM	12.6 ± 0.22 µM	–	Cc1ccc(Cl)cc1N1CCN(CCc2ccc(COc3ccc4c(c3)CCC4)cc2)CC1 [Compound 23, 1-(4-((2,3-dihydro-1H-inden-5-yloxy)methyl)phenethyl)-4-(5-chloro-2-methylphenyl)piperazine]	> 50 µM
114.1 to 115.2 °C	–	–	2.31 ± 0.23 µM	14.7 ± 0.15 µM	–	Brc1ccc(N2CCN(CCc3ccc(COc4ccc5c(c4)CCC5)cc3)CC2)cc1 [Compound 24, 1-(4-((2,3-dihydro-1H-inden-5-yloxy)methyl)phenethyl)-4-(4-bromophenyl)piperazine]	> 50 µM
53.6 to 54.8 °C	1220 ± 150 nM	< 2000 nM	> 50 µM	–	–	FC(F)(F)c1ccccc1N1CCN(CCc2ccc(COc3ccc4c(c3)CCC4)cc2)CC1 [Compound 25, 1-(4-((2,3-dihydro-1H-inden-5-yloxy)methyl)phenethyl)-4-(2-(trifluoromethyl)phenyl)piperazine]	> 50 µM
135.3 to 136.5 °C	1430 ± 180 nM	< 2000 nM	> 50 µM	–	–	FC(F)(F)c1ccc(N2CCN(CCc3ccc(COc4ccc5c(c4)CCC5)cc3)CC2)cc1 [Compound 26, 1-(4-((2,3-dihydro-1H-inden-5-yloxy)methyl)phenethyl)-4-(4-(trifluoromethyl)phenyl)piperazine]	> 50 µM
–	–	–	42.1 ± 0.79 µM	22.4 ± 0.61 µM	–	COc1ccccc1N1CCN(CC(O)COc2cccc3ccccc23)CC1 (stereo not shown) [Naftopidil, reference compound]	> 50 µM
